{"source": "patent US10265284B2", "about": "“Composition for use in the treatment of intervertebral disc-related pain” (STAYBLE THERAPEUTICS AB, priority 2015, dated 2019)", "type_in_all_cases": "in vivo, pig", "key": {"[1]": {"tested_on": "nucleus pulposus of the L3-4 intervertebral disc", "assay": "Flexion stiffness of the injected L3-4 intervertebral disc, Example 1", "conditions": "injected L 3-4 vs non-injected L 2-3 and L 4-5; seven days", "description": "Access to the L4-5 intervertebral disc was obtained through a lateral incision between the lowest rib and the iliac crest on the left side of each pig. Thereafter, the L3-4 intervertebral disc was incised with a scalpel. […] The composition was injected in a single step at a single occasion."}, "[2]": {"tested_on": "nucleus pulposus of the L3-4 intervertebral disc", "assay": "Dimension of the disc space after injection, Example 1", "description": "110. performing a cross-section of the discs and measuring the length (anterio-posterior direction) and the width (bilateral direction) of the disc space. Two pigs were anesthetized and placed on their right side. Access to the L4-5 intervertebral disc was obtained through a lateral incision between the lowest rib and the iliac crest on the left side of each pig. Thereafter, the L3-4 intervertebral disc was incised with a scalpel. […] The composition was injected in a single step at a single occasion. The intervertebral discs (L2-3, L3-4, L4-5) were cross-sectioned and the length of the disc space (anterio-posterior direction) and the width (bilateral direction) of the disc space were measured by calipers. In FIGS. 5 and 6, an intervertebral disc is schematically shown in cross-section. The intervertebral disc comprises the annulus fibrosus 10, and a disc space defined by the annulus fibrosus and comprising the nucleus pulposus 11."}, "[3]": {"assay": "Tolerability and adverse reactions after intradiscal injection, Example 1", "description": "Two pigs were anesthetized and placed on their right side. Access to the L4-5 intervertebral disc was obtained through a lateral incision between the lowest rib and the iliac crest on the left side of each pig. Thereafter, the L3-4 intervertebral disc was incised with a scalpel.\nThe composition was injected in a single step at a single occasion.\nAt harvest, the pigs were killed.\nThe injection site was observed by the naked eye. […] The segment of the vertebral column extending from the lumbar vertebra L2 to the sacral vertebra S1 was removed. The facet joints were removed, thus allowing full flexibility of the discs with no restraints from other structures."}, "[4]": {"conditions": "injected L 3-4 vs non-injected L2-3, L4-5, seven days"}}}
{"smiles": "CC(O)C(=O)O", "note": "(stereo not drawn) [lactic acid]", "values": [{"measurement": "Balanced value (flexion stiffness) of injected discs compared with non-injected adjacent discs", "setting": "[1]", "value": "much smaller balanced value"}, {"measurement": "Cross-sectional area of the disc space compared with non-injected discs", "setting": "[2]; FIG. 7, injected L3-4 vs non-injected L2-3 and L4-5, naked eye", "value": "much smaller cross-sectional area"}, {"measurement": "Average anterio-posterior length of the disc space compared with non-injected discs", "setting": "[2]; [4]", "value": "significantly lower"}, {"measurement": "Average bilateral width of the disc space compared with non-injected discs", "setting": "[2]; [4]", "value": "significantly lower"}, {"measurement": "Adverse reaction such as decreased mobility or vocalization", "setting": "[3]; both pigs, period of seven days until harvest, 0.2 mL of 1.34 mol/L, pH 1.8, into L3-4 disc", "value": "no adverse reaction"}, {"measurement": "Adverse reaction at the injection site, such as bleedings, inflammation or necrosis", "setting": "[3]; naked eye at harvest, seven days after injection", "value": "No adverse reaction at the injection site"}]}
